Measured values: ChEMBL document CHEMBL5352402, “Discovery of novel non-nucleoside inhibitors with high potency and selectivity for DNA methyltransferase 3A” (Eur J Med Chem, 2022)
pIC50: −log10 of the molar value. Calls of active or inactive are those of the source. The rule behind the calls is not given here.

Key:
[1] = tested on: THP-1; assay: Antiproliferative activity against human THP-1 cells assessed as inhibition of cell proliferation incubated for 72 hrs by MTT assay; assay type: functional, cell-based; conditions: THP-1, 72 h
[2] = tested on: DU-145; assay: Antiproliferative activity against human DU-145 cells assessed as inhibition of cell proliferation incubated for 72 hrs by MTT assay; assay type: functional, cell-based; conditions: DU-145, 72 h
[3] = target: DNA (cytosine-5)-methyltransferase 1 (Homo sapiens, UniProt P26358); assay: Inhibition of N-terminal GST-tagged full-length recombinant human DNMT1 assessed as DNA methylation using pdI-pdC DNA as substrate preincubated for 15 mins followed by substrate addition in presence of [3H]-SAM and measured after 150 mins by radioactive methylation assay
[4] = target: T1, DNMT3A2/3L complex (Homo sapiens) (UniProt Q9Y6K1+Q9UJW3); assay: (§1) Inhibition of N-terminal His-tagged human DNMT3A (623 to 912 residues)/N-terminal GST-tagged human DNMT3L (160 to 387 residues) co-expressed in baculovirus infected Sf9 cells assessed as DNA methylation using DNA oligonucleotide IDT-01 as substrate at 100 uM preincubated for 15 mins followed by substrate addition in presence of [3H]-SAM and measured after 4 hrs by radioactive methylation assay; conditions: time 255.0 min
[5] = tested on: U-937; assay: Antiproliferative activity against human U-937 cells assessed as inhibition of cell proliferation at 100 uM incubated for 24 to 72 hrs by MTT assay; assay type: functional, cell-based; conditions: time 24-72 hrs, TDE = time-dependent effect
[6] = tested on: K562; assay: Antiproliferative activity against human K562 cells assessed as inhibition of cell proliferation at 0.1 to 100 uM incubated upto 72 hrs by MTT assay; assay type: functional, cell-based; conditions: dose 0.1-100 µM
[7] = tested on: THP-1; assay: Antiproliferative activity against human THP-1 cells assessed as inhibition of cell proliferation at 0.1 to 100 uM incubated upto 72 hrs by MTT assay; assay type: functional, cell-based; conditions: dose 0.1-100 µM
[8] = target: T2, Histone-lysine N-methyltransferase EHMT2 (Homo sapiens, UniProt Q96KQ7); assay: Inhibition of N-terminal GST-tagged human G9a expressed in baculovirus infected Sf9 cells using biotinylated histone H3 peptide as substrate preincubated for 15 mins followed by substrate addition in presence of SAM and measured after 60 mins by AlphaLISA assay
T2 sequence (Q96KQ7 whole entry): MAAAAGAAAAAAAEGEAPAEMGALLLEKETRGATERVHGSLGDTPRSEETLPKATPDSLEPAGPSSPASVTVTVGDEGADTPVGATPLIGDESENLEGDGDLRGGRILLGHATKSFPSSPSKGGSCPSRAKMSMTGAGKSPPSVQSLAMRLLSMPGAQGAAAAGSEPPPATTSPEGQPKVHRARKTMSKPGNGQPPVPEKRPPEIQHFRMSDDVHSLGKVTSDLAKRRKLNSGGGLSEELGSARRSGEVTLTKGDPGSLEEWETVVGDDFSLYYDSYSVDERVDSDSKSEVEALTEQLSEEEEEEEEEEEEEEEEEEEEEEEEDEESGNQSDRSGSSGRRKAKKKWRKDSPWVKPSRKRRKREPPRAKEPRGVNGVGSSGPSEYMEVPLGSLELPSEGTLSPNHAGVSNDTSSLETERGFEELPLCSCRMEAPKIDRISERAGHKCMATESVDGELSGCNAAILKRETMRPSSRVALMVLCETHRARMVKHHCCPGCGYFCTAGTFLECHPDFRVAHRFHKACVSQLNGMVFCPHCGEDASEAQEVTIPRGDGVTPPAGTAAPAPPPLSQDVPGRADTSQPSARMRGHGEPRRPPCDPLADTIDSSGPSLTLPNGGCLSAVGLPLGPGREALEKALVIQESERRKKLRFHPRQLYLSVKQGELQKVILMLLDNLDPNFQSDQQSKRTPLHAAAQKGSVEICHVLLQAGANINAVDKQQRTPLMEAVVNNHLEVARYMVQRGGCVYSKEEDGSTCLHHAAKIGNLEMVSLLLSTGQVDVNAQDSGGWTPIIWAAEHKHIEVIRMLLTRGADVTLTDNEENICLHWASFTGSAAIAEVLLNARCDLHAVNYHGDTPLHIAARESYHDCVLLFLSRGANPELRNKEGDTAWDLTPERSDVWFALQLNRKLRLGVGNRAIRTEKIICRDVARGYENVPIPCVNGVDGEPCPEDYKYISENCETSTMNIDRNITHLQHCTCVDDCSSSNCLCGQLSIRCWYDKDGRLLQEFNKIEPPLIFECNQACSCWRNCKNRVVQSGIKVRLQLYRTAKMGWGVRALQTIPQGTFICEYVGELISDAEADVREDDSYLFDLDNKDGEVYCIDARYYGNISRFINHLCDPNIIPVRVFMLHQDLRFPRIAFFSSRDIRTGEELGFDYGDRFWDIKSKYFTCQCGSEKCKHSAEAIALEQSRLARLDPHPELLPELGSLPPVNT

[9] = tested on: K562; assay: Antiproliferative activity against human K562 cells assessed as inhibition of cell proliferation at 100 uM incubated for 24 to 72 hrs by MTT assay; assay type: functional, cell-based; conditions: time 24-72 hrs, TDE = time-dependent effect
[10] = target: T1, DNMT3A2/3L complex (Homo sapiens); assay: as §1, with “10” for “100”; conditions: time 255.0 min
[11] = tested on: DU-145; assay: Antiproliferative activity against human DU-145 cells assessed as inhibition of cell proliferation at 100 uM incubated for 24 to 72 hrs by MTT assay; assay type: functional, cell-based; conditions: time 24-72 hrs, TDE = time-dependent effect
[12] = tested on: DU-145; assay: Antiproliferative activity against human DU-145 cells assessed as inhibition of cell proliferation at 0.1 to 100 uM incubated upto 72 hrs by MTT assay; assay type: functional, cell-based; conditions: dose 0.1-100 µM
[13] = tested on: A549; assay: Antiproliferative activity against human A549 cells assessed as inhibition of cell proliferation at 0.1 to 100 uM incubated upto 72 hrs by MTT assay; assay type: functional, cell-based; conditions: dose 0.1-100 µM
[14] = tested on: K562; assay: Antiproliferative activity against human K562 cells assessed as inhibition of cell proliferation incubated for 72 hrs by MTT assay; assay type: functional, cell-based; conditions: K562, 72 h
[15] = tested on: HCT-116; assay: cells; conditions: Homo sapiens, HCT-116, 72 h
Description: Antiproliferative activity against human HCT-116 cells assessed as inhibition of cell proliferation incubated for 72 hrs by MTT assay

[16] = tested on: A549; assay: Antiproliferative activity against human A549 cells assessed as inhibition of cell proliferation at 100 uM incubated for 24 to 72 hrs by MTT assay; assay type: functional, cell-based; conditions: time 24-72 hrs, TDE = time-dependent effect
[17] = target: DNMT3B (Homo sapiens, UniProt Q9UBC3); assay: as §1, with “DNMT3B (564” for “DNMT3A (623”, “853” for “912”, “substrate” for “substrate at 100 uM”
[18] = tested on: U-937; assay: cells; conditions: Homo sapiens, U-937, 72 h
Description: Antiproliferative activity against human U-937 cells assessed as inhibition of cell proliferation incubated for 72 hrs by MTT assay

[19] = tested on: A549; assay: cells; conditions: Homo sapiens, A549, 72 h
Description: Antiproliferative activity against human A549 cells assessed as inhibition of cell proliferation incubated for 72 hrs by MTT assay

[20] = Cytotoxicity activity against human PBMC cells assessed as inhibition of cell proliferation incubated for 72 hrs by MTT assay; assay type: toxicity, cell-based
[21] = tested on: THP-1; assay: Antiproliferative activity against human THP-1 cells assessed as inhibition of cell proliferation at 100 uM incubated for 24 to 72 hrs by MTT assay; assay type: functional, cell-based; conditions: time 24-72 hrs, TDE = time-dependent effect
[22] = target: DNA (cytosine-5)-methyltransferase 3A (Homo sapiens) (UniProt Q9Y6K1); assay: Inhibition of DNMT3A in human HCT-116 cells assessed as downregulation of DNMT3A protein level at 1 uM incubated for 72 hrs by Western blot analysis; assay type: cell-based
[23] = tested on: U-937; assay: Antiproliferative activity against human U-937 cells assessed as inhibition of cell proliferation at 0.1 to 100 uM incubated upto 72 hrs by MTT assay; assay type: functional, cell-based; conditions: dose 0.1-100 µM
[24] = target: DNA (cytosine-5)-methyltransferase 3A (Homo sapiens) (UniProt Q9Y6K1); assay: Inhibition of DNMT3A in human HCT-116 cells assessed as increase in p53 protein level at 1 uM incubated for 72 hrs by Western blot analysis; assay type: cell-based
[25] = tested on: HCT-116; assay: Antiproliferative activity against human HCT-116 cells assessed as inhibition of cell proliferation at 0.1 to 100 uM incubated upto 72 hrs by MTT assay; assay type: functional, cell-based; conditions: dose 0.1-100 µM
[26] = tested on: HCT-116; assay: Antiproliferative activity against human HCT-116 cells assessed as inhibition of cell proliferation at 100 uM incubated for 24 to 72 hrs by MTT assay; assay type: functional, cell-based; conditions: time 24-72 hrs, TDE = time-dependent effect
[27] = target: T1, DNMT3A2/3L complex (Homo sapiens); assay: Competitive inhibition of N-terminal His-tagged human DNMT3A (623 to 912 residues)/N-terminal GST-tagged human DNMT3L (160 to 387 residues) co-expressed in baculovirus infected Sf9 cells assessed as DNA methylation using varying concentration of oligonucleotide IDT-01 as substrate preincubated for …; conditions: time 255.0 min

T1 sequence (Q9UJW3 whole entry, looked up, the tested form may be a part): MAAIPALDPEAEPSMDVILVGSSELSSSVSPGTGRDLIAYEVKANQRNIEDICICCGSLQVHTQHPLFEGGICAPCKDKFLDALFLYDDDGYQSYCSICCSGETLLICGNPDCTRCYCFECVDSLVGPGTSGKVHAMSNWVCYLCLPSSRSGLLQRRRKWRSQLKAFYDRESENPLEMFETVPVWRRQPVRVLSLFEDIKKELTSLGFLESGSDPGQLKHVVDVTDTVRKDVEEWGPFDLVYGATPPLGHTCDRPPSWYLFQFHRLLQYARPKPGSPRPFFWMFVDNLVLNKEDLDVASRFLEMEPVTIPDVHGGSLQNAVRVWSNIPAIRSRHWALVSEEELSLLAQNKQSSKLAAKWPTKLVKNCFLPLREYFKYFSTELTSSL
T1 sequence (Q9Y6K1 whole entry, looked up, the tested form may be a part): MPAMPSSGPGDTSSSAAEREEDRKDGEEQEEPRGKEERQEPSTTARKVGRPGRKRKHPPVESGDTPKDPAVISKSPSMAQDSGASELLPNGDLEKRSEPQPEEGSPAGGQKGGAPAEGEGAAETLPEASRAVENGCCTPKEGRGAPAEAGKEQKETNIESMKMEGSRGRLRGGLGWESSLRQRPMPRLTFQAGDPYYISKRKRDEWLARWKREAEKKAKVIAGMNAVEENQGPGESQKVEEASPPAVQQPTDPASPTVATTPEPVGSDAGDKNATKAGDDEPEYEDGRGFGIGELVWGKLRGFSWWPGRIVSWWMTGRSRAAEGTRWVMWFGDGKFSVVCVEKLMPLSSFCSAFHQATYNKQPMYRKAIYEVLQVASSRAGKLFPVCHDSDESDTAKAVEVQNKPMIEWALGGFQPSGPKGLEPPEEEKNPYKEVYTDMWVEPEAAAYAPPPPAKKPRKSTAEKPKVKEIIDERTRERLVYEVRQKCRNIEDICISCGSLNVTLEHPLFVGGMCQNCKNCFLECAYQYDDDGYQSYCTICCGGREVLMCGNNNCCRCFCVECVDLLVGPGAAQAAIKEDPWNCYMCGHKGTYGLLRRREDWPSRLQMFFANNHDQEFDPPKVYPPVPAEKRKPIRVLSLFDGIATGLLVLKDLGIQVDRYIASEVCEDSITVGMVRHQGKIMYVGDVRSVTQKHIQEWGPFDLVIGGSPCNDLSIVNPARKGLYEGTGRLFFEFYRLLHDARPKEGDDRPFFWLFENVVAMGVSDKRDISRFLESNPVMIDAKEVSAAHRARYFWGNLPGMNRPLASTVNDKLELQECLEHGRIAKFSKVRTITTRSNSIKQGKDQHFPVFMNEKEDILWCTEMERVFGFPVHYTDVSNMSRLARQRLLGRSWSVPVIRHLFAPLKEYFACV
Sequence of DNA (cytosine-5)-methyltransferase 3A (Homo sapiens) (Q9Y6K1 whole entry, looked up): as the sequence (Q9Y6K1 whole entry, looked up, the tested form may be a part) above
Sequence of DNA (cytosine-5)-methyltransferase 1 (P26358 whole entry, the tested form may be a part): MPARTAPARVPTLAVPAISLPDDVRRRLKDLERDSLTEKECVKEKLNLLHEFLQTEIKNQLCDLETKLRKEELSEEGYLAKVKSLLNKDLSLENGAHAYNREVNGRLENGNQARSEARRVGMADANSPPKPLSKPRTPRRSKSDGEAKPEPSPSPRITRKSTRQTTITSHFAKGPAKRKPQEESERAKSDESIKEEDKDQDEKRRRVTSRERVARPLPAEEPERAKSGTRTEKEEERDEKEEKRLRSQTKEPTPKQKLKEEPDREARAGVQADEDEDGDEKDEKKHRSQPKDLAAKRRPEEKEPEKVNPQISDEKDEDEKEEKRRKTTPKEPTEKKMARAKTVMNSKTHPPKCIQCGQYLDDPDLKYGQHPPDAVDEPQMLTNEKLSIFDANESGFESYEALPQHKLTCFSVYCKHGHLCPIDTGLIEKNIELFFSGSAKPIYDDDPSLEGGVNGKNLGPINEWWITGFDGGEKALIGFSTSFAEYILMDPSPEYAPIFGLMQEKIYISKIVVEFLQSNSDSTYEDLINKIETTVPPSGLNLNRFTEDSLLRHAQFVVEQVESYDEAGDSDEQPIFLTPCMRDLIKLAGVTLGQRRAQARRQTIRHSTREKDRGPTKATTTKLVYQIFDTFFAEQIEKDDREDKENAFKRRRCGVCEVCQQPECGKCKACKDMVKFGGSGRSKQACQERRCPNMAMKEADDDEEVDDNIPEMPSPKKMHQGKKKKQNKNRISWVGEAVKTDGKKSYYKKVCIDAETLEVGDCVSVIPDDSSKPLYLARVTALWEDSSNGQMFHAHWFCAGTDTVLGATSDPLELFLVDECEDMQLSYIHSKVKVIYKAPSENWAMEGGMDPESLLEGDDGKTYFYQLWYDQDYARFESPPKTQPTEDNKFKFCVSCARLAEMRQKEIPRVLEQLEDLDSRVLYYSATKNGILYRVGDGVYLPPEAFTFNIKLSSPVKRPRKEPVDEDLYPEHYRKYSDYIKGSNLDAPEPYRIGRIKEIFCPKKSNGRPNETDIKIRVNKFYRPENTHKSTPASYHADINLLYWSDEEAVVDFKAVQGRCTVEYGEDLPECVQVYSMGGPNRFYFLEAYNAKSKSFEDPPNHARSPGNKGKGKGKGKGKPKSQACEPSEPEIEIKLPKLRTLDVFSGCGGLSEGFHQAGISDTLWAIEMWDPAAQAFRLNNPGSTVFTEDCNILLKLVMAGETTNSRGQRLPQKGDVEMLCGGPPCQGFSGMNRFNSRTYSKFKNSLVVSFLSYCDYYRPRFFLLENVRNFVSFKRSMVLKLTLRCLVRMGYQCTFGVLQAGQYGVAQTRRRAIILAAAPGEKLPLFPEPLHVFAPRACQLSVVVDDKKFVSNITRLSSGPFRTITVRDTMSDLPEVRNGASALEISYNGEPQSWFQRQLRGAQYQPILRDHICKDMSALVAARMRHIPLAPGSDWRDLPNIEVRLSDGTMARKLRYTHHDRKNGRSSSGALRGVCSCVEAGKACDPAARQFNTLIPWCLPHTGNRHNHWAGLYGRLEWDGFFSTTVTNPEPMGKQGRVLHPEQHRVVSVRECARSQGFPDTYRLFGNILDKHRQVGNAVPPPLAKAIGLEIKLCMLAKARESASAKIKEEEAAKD

Row | pIC50 [1] | pIC50 [2] | pIC50 [3] | inhibition [4] [%] | pIC50 [8] | inhibition [10] [%] | pIC50 [14] | pIC50 [15] | pIC50 [17] | pIC50 [18] | pIC50 [19] | SMILES | Activity [5] | Activity [6] | Activity [7] | Activity [9] | Activity [11] | Activity [12] | Activity [13] | Activity [16] | IC50 at 72 h [20] [nM] | also measured
1 | 5.74 | 5.43 | 4.68 | 81.8 | < 3.30 | 74.7 | 5.80 | 6.30 | 3.66 | 5.64 | 5.34 | Cc1oc2ncn(CCN(C)C)c(=O)c2c1C(=O)Nc1ccc(S(N)(=O)=O)nc1 | Tde | Dose-Dependent Effect | Dose-Dependent Effect | Tde | Tde | Dose-Dependent Effect | Dose-Dependent Effect | Tde | 131000 | Activity [21]: Tde; inhibition [22]: Active; Activity [23]: Dose-Dependent Effect; p53 protein level increase (active/not active) [24]: Active; Activity [25]: Dose-Dependent Effect; Activity [26]: Tde
2 | 6.15 | 5.77 | 4.89 | 93.1 | < 3.30 | 83.8 | 6.30 | 6.52 | 3.98 | 6.15 | 5.68 | Cc1oc2ncn(CCN3CCCC3)c(=O)c2c1C(=O)Nc1ccc(S(N)(=O)=O)nc1 | Tde | Dose-Dependent Effect | Dose-Dependent Effect | Tde | Tde | Dose-Dependent Effect | Dose-Dependent Effect | Tde | 91000 | inhibition [27]: Active; Activity [21]: Tde; inhibition [22]: Active; Activity [23]: Dose-Dependent Effect; p53 protein level increase (active/not active) [24]: Active; Activity [25]: Dose-Dependent Effect; Activity [26]: Tde
